Our source for the GI and Activity values is ChEMBL document CHEMBL1151349, “The antineoplastic quassinoids of Simaba cuspidata spruce and Ailanthus grandis Prain” (1980).

Activity calls are given as the source filed them. The calls are words filed in the database; no cut-off is given here.

Test [1] relates to P388. Briefly: Antineoplastic activity against mouse P388 cells. Type of test: functional.
The subject of test [2] is P388. Briefly: In vivo antineoplastic activity against mouse P388 cells upto 2.0 mg/kg. Type of test: functional, organism-based. More on the design: dose 2 mg/kg.
Test [3] deals with P388. Briefly: In vivo antineoplastic activity against mouse P388 cells assessed as increase in survival time at 0.08 to 0.60 mg/kg. Type of test: functional. Particulars: dose mg/kg 0.08-0.60.

The molecule `C/C=C(/C)C(=O)O[C@@H]1[C@H]2C(C)=C[C@H](O)[C@@H](O)[C@]2(C)[C@H]2[C@@]3(O)OC[C@@]24[C@@H]1OC(=O)C[C@H]4[C@@H](C)[C@H]3O` had a GI in test [1] of 0.24 µg/mL. The outcome in test [2] was inactive.

With `CC[C@@](C)(OC(C)=O)C(=O)O[C@H]1C(=O)O[C@@H]2C[C@H]3C(C)=C[C@H](O)[C@@H](O)[C@]3(C)[C@H]3[C@@]4(O)OC[C@]32[C@@H]1[C@@H](C)[C@H]4O`, the result in test [1] was inactive. Take `C/C=C(/C)C(=O)O[C@@H]1[C@H]2C(C)=CC(=O)[C@@H](O)[C@]2(C)[C@H]2[C@@]3(O)OC[C@@]24[C@@H]1OC(=O)C[C@H]4[C@@H](C)[C@H]3O`: in test [1], the GI is less than 0.01 µg/mL. In test [3], the Activity is given as 34%.
